Test results reported in paper PMC5514153, “Targeting PTPRZ inhibits stem cell-like properties and tumorigenicity in glioblastoma cells” (Scientific Reports, 2017).

What was measured:
[1] = system: C6 xenograft; assay: C6 subcutaneous xenograft nude mouse model; format: in vivo; conditions: nude mice, i.p. twice per week; NAZ2329 45 µmol (22.5 mg)/kg, TMZ 50 mg/kg; vehicle 17 days
Method: Figure 10 Antitumor effects of NAZ2329 on the C6 mouse xenograft model. (A) Nude mice were subcutaneously implanted with C6 cells (5 × 10^6 cells), and tumor size was monitored until the criteria were met (>150 mm^3). At this time, mice were randomly divided into 4 treatment groups. DMSO as the vehicle control (n = 7), NAZ2329 (45 µmol (22.5 mg)/kg body weight, n = 9), temozolomide (TMZ, 50 mg/kg, n = 9), and the combination of NAZ2329 (45 µmol/kg) with TMZ (50 mg/kg) (n = 9) were administered intraperitoneally twice per week until the humane endpoint (>3,000 mm^3 tumor size or 40 days after the treatment). Tumor growth in each animal and the number of days required to reach a tumor volume of 3,000 mm^3 are shown in the graph. Five mice were sacrificed due to tumor necrosis (shown by gray symbols in the graph), and two mice unexpectedly died suddenly during the observation period (black symbols in the graph).
Parental or Ptprz-knockdown C6 cells (5 × 10^6 cells) suspended in a volume of 100 µl were subcutaneously injected into the left hind limbs of BALB/c-nu/nu mice (females, 4 weeks old mice were purchased from Japanese Charles River Co. Ltd.). Tumor growth was measured with calipers and calculated by the formula: volume = length × width × width × 0.5, as previously described. The drug treatment initiated when the tumor size reached 150 mm^3. […]

[2] = target: T1, hPTPRM (Homo sapiens, UniProt P28827); assay: In vitro PTPase assay (DiFMUP), PTPRM; format: biochemical; conditions: 60-min preincubation
T1 construct: Recombinant proteins corresponding to the entire intracellular regions (ICRs) of PTPRZ1, PTPRA, and PTPRM; made in house; host or cells: baculovirus-silkworm expression system
Method: Figure 4 NAZ2329, an allosteric inhibitor of R5 RPTP subfamily members. (A) Structure of NAZ2329. (B) Effect of preincubation of NAZ2329 on its inhibitory activity against PTPRZ. Recombinant human PTPRZ1 enzyme (the whole intracellular region) was premixed with NAZ2329 for the indicated times and followed by addition of a fluorogenic DiFMUP (non-specific PTP substrate, 6,8-difluoro-4-methylumbiliferyl phosphate) to measure PTP inhibitory activity. (C) Time dependence. The PTPRZ1 enzyme was added to the inhibitor–substrate mixture, and the inhibitory activity was determined at each time point relative to the vehicle control. (D) Reversibility of inhibition. […] The mixture was then 20-fold diluted, and recovered PTP activity was expressed as the relative activity compared with the vehicle-treated enzyme. […] PTPRZ1 enzymes were preincubated with NAZ2329 for 60 min, and the PTP activity was measured using DiFMUP. […]
Recombinant proteins corresponding to the entire intracellular regions (ICRs) of PTPRZ1, PTPRA, and PTPRM were expressed using a baculovirus-silkworm expression system, and purified as described. The ICRs of PTPRG, PTPRS, and PTPRB and the catalytic domains of PTPN1 and PTPN6 were expressed as glutathione-S-transferase (GST) fusion proteins from each pGEX plasmid in Escherichia coli strain BL21 (ref. [6]). […]

T1 sequence (P28827 765-1452 limits assumed): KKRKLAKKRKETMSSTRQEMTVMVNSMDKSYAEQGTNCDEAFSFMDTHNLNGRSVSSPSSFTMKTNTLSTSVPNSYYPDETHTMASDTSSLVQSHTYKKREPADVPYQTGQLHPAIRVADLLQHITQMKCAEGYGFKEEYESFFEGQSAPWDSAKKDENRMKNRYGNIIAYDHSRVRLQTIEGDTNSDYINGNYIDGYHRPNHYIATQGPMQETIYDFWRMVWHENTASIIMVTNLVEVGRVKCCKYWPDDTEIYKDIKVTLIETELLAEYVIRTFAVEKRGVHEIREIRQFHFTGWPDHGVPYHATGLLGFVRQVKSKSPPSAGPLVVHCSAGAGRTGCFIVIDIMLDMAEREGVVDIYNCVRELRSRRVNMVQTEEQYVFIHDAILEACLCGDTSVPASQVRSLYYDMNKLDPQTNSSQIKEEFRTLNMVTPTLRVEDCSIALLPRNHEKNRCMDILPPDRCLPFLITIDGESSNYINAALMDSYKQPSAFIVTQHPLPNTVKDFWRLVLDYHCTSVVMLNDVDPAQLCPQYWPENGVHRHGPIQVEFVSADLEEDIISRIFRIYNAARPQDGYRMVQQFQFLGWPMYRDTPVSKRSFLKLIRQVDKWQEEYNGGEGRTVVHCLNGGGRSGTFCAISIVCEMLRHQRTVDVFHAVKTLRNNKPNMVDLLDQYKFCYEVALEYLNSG

CCOc1ccc(C(F)(F)F)cc1CSc1ccsc1C(=O)NS(=O)(=O)c1ccccc1 [NAZ2329]
median day for the tumor size to reach 3,000 mm^3 [1]: 25 days | IC50 [2]: 56.7 µM
